# Data reported in paper PMC7005530, “A selective androgen receptor modulator SARM‐2f activates androgen receptor, increases lean body mass, and suppresses blood lipid levels in cynomolgus monkeys” (Pharmacology Research & Perspectives, 2020).
# Read-outs that look alike come from different tables or passages of the source.
# How the values were obtained:
# [1] = set-up: method as in PMID 29344250; details: rats; cited from earlier work
# [2] = test system: 126 biochemical activity assays (enzyme assays or radioligand binding assays); experiment: 126 biochemical activity assays (enzyme assays or radioligand binding assays), MDS Pharma Service; details: at 10 µmol/L; Table S5 (picture, not readable)
# Description: Based on these findings, we believe that SARM‐2f has no severe off‐target effects.
# [3] = Pharmacokinetic study, oral single and 14-day dosing; assay type: in vivo, cynomolgus monkey
# Protocol: Monkeys were orally treated with SARM‐2f (10 mg/kg) as a single dose or daily administration for 14 consecutive days; blood was collected from the femoral vein at 0.5, 1, 2, 4, 8, and 24 hours after the single dose and 14 doses (n = 2 each sex). The blood samples were centrifuged (4°C, 12 000 g, 1 minutes) to obtain plasma. Plasma concentrations of SARM‐2f were measured by liquid chromatography/tandem mass spectrometry.
# [4] = set-up: method as in PMID 28454849; details: monkeys, cited from earlier work
# cynomolgus monkey AR = target: T1, cynomolgus monkey AR (Macaca fascicularis, UniProt O97952); experiment: AR reporter assay (MMTV-luc) in COS7 cells expressing monkey AR; assay type: cell-based
# T1 construct: expressed in transfected cells; host or cells: COS7
# T1 sequence (O97952 1-895): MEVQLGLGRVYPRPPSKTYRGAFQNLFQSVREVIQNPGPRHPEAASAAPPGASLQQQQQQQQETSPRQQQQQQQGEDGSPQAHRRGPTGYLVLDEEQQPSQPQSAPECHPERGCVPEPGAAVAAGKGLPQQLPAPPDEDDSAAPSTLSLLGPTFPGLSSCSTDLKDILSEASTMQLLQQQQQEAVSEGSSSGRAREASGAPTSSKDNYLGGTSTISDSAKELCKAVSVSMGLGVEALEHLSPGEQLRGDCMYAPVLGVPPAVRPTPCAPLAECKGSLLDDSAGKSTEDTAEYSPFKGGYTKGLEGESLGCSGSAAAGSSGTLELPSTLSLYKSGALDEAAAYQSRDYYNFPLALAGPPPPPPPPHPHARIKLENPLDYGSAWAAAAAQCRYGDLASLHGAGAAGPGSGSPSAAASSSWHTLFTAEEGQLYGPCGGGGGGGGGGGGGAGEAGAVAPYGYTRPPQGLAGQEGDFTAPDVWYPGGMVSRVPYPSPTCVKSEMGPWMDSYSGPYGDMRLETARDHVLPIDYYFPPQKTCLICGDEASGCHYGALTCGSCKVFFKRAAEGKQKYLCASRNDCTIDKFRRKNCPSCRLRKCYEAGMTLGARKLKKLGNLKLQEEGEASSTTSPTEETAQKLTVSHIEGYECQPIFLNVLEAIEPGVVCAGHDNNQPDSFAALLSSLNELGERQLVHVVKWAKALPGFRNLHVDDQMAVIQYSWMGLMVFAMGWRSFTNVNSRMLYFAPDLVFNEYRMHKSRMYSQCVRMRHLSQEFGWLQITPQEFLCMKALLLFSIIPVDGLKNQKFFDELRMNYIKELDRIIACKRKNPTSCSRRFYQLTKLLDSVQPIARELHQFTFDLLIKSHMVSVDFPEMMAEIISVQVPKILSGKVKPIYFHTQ
# Protocol: Two hours post‐transfection, the cells were plated in 96‐well plates at a density of 2 × 10^4 cells/well, and cultured at 37°C for 3 hours. […] Luciferase activity was measured using the Steady‐Glo Luciferase assay system (Promega) and an Envision Multimode Plate Reader (PerkinElmer).
# (§1) In the reporter assays, EC50 was calculated using Graph Pad Prism version 6. The effects of SARM‐2f or TE on BW and LBM were analyzed by t test, with Bonferroni correction for repeated measurements.
# [5] = Effects on body weight and lean body mass, 4-week administration; assay type: in vivo, cynomolgus monkey
# Protocol: The monkeys were divided into five groups by weight randomization (MiTOX system ver2.0, Mitsui E & S Systems Research Inc) on the last day of the habituation period. SARM‐2f was orally administered at daily doses of 1, 3, or 10 mg/kg for 4 weeks between 9:00 and 11:00 hours, using 0.5% w/v methylcellulose as the vehicle. TE was injected intramuscularly on Day 0 and Day 13; the dosing start was set at Day 0 at a dose of 2 mg/kg using sesame oil as the vehicle. The route of administration and dose of TE was selected according to the route and dose mentioned in the clinical indications. BW was measured every week before dosing (between 8:30 and 9:00 hours), and LBM was measured every 2 weeks after dosing and before feeding (between 11:30 and 14:30 hours) using an X‐ray bone density measuring device (Discovery, HOLOGIC USA). Blood collection for lipid profiles was conducted on the day after the completion of the four‐week multiple administration of SARM‐2f or TE. Plasma levels of total cholesterol (T‐chol), HDL‐c, low‐density lipoprotein cholesterol (LDL‐c), triglyceride (TG), alanine aminotransferase (ALT), and […] (AST) were measured by an automatic JCA‐BM8 analysis system (JEOL Ltd.). Plasma lipoprotein (a) (Lp (a)) levels were measured using a multiplate absorbance measuring system (Multiscan Ascent, Thermo Fisher Scientific KK).
# as §1
# [6] = 10 mg/kg p.o., 1st (single) dose, total N = 4
# [7] = 10 mg/kg p.o., 1st dose, female N = 2
# [8] = 10 mg/kg p.o., 1st dose, male N = 2
# [9] = 10 mg/kg/day p.o., 14th dose, female N = 2
# [10] = 10 mg/kg/day p.o., 14th dose, male N = 2
# [11] = 10 mg/kg/day p.o., 14th dose, total N = 4
smiles,measurement,setting,value
"CC[C@H]1[C@@H](O)CC(=O)N1c1ccc(C#N)c(C(F)(F)F)c1 [SARM‐2f, 4′‐[(2S,3S)‐2‐Ethyl‐3‐hydroxy‐5‐oxopyrrolidin‐1‐yl]‐2′‐(trifluoromethyl) benzonitrile]",dose sufficient to increase BW,[1],0.3 mg/kg
same,molecules affected in 126 biochemical activity assays,[2],the only molecule that SARM‐2f affected at 10 µmol/L was AR
same,AUC 0‐24 h,[3]; [6],8152 ± 945 ng·h/mL
same,C max,[3]; [6],3011 ± 718 ng/mL
same,T max,[3]; [6],1.0 ± 0.0 h
same,AUC 0‐24 h,[3]; [7],8116 ng·h/mL
same,C max,[3]; [7],3341 ng/mL
same,T max,[3]; [7],1.0 h
same,AUC 0‐24 h,[3]; [8],8188 ng·h/mL
same,C max,[3]; [8],2681 ng/mL
same,T max,[3]; [8],1.0 h
same,AUC 0‐24 h,[3]; [9],6043 ng·h/mL
same,C max,[3]; [9],2297 ng/mL
same,T max,[3]; [9],1 h
same,AUC 0‐24 h,[3]; [10],8620 ng·h/mL
same,C max,[3]; [10],3176 ng/mL
same,T max,[3]; [10],0.8 h
same,AUC 0‐24 h,[3]; [11],7331 ± 1618 ng·h/mL
same,C max,[3]; [11],2736 ± 525 ng/mL
same,T max,[3]; [11],0.9 ± 0.3 h
same,Vdss,[4]; intravenous administration at 0.1 mg/kg,1.409 L/kg
same,AUC 0‐24 h,[4]; single oral administration at 1 mg/kg,557.8 ng·h/mL
same,MRT (Mean Residence Time),[4],5.21 h
same,EC50,"cynomolgus monkey AR; monkey AR reporter assay (abstract), read-out: EC50",3 nM
same,maximal AR activation,"cynomolgus monkey AR; monkey AR, at 1 μmol/L, 1 μmol/L DHT = 100%",125%
same,BW increase from pre‐dosing level,"[5]; 1 mg/kg daily p.o., Day 13, male monkeys n = 3",6.2%
same,LBM increase from pre‐dosing level,"[5]; 1 mg/kg daily p.o., Day 13, n = 3",4.3%
same,BW increase from pre‐dosing level,"[5]; 1 mg/kg daily p.o., Day 27, male monkeys n = 3",7.7%
same,LBM increase from pre‐dosing level,"[5]; 1 mg/kg daily p.o., Day 28, n = 3",6.1%
same,BW increase from pre‐dosing level,"[5]; 3 mg/kg daily p.o., Day 13, male monkeys n = 3",6.0%
same,LBM increase from pre‐dosing level,"[5]; 3 mg/kg daily p.o., Day 13, n = 3",4.0%
same,BW increase from pre‐dosing level,"[5]; 3 mg/kg daily p.o., Day 27, male monkeys n = 3",3.3%
same,LBM increase from pre‐dosing level,"[5]; 3 mg/kg daily p.o., Day 28, n = 3",3.1%
same,effective dose to increase BW by approximately 10%,"[5]; monkeys, daily p.o., 4 weeks",10 mg/kg
